Laboratory results as given in ChEMBL document CHEMBL3804798, “Design, synthesis and anti-inflammatory effects of novel 9-O-substituted-berberine derivatives” (Medchemcomm, 2016).
Activity calls are given as the source filed them. No cut-off for these calls is given here.

Tests used:
[1] = Cytotoxicity against mouse RAW264.7 cells assessed as cell viability at 10 uM after 48 hrs by MTT assay relative to control; assay type: cell-based; settings: read-out: Activity
[2] = Cytotoxicity against mouse RAW264.7 cells assessed as cell viability at 5 uM after 48 hrs by MTT assay relative to control; assay type: cell-based; settings: read-out: Activity
RAW264.7 [3] = test: Antiinflammatory activity against mouse RAW264.7 cells assessed as inhibition of LPS-induced NO release at 5 uM after 24 hrs by Griess assay relative to control; assay type: functional; settings: RAW264.7, 24 h
[4] = biological target: T1, NF-kappa-B inhibitor alpha (Mus musculus) (UniProt Q9Z1E3); test: Inhibition of LPS stimulated IkappaBaplha phosphorylation in mouse RAW264.7 cells preincubated for 2 hrs followed by LPS stimulation for 6 hrs by Western blot analysis; assay type: cell-based
T1 sequence (whole entry): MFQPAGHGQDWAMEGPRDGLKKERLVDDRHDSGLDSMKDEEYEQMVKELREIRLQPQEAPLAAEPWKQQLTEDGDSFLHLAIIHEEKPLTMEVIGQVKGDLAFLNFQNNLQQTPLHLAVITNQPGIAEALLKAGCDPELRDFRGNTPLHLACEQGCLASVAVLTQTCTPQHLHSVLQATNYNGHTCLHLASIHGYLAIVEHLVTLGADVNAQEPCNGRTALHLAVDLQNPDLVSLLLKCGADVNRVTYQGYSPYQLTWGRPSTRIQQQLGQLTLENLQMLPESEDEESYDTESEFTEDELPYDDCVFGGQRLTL

Danio rerio [5] = species: Danio rerio; test: Antiinflammatory activity in cut-tail neutrophil/macrophage double transgenic zebra fish larvae assessed as cut-tail-induced reduction in migration of primitive macrophages at 10 uM after 9 hrs by fluorescence microscopic analysis relative to control; assay type: functional, organism-based
RAW264.7 [6] = test: Antiinflammatory activity against mouse LPS-induced RAW264.7 cells assessed as inhibition of TNFalpha production at 5 uM after 24 hrs by cytokine enzyme-linked immunosorbent assay relative to control; assay type: functional; settings: RAW264.7, 24 h
RAW264.7 [7] = test: Inhibition of LPS stimulated iNOS expression in mouse RAW264.7 cells preincubated for 2 hrs followed by LPS stimulation for 6 hrs by Western blot analysis; assay type: functional, cell-based
Danio rerio [8] = species: Danio rerio; test: Antiinflammatory activity in cut-tail neutrophil/macrophage double transgenic zebra fish larvae assessed as cut-tail-induced migration of primitive macrophages at 10 uM after 3 to 6 hrs by fluorescence microscopic analysis relative to control; assay type: functional, organism-based
Danio rerio [9] = species: Danio rerio; test: Antiinflammatory activity in cut-tail neutrophil/macrophage double transgenic zebra fish larvae assessed as cut-tail-induced reduction in neutrophil level in wound site at 10 uM after 3 to 9 hrs by fluorescence microscopic analysis relative to control; assay type: functional, organism-based
RAW264.7 [10] = test: Antiinflammatory activity against mouse LPS-induced RAW264.7 cells assessed as inhibition of IL-6 production at 5 uM after 24 hrs by cytokine enzyme-linked immunosorbent assay relative to control; assay type: functional, cell-based
RAW264.7 [11] = test: Antiinflammatory activity against mouse RAW264.7 cells assessed as inhibition of LPS-induced NO release after 24 hrs by Griess assay relative to control; assay type: functional, cell-based

Row | SMILES | viability at 48 h, 10 µM [1] [%] | viability at 48 h, 5 µM [2] [%] | inhibition at 5 µM (RAW264.7 [3]) [%] | other results
1 | CCOC(=O)N1CCN(C(=O)Oc2c(OC)ccc3cc4[n+](cc23)CCc2cc3c(cc2-4)OCO3)CC1 | 99.6 | 97.9 | 9.7 | 
2 | COc1ccc2cc3[n+](cc2c1OC(=O)N1CCC(N2CCN(C)CC2)CC1)CCc1cc2c(cc1-3)OCO2 | 104 | 101 |  | 
3 | COc1ccc2cc3[n+](cc2c1OC(=O)N1CCN(c2ccccn2)CC1)CCc1cc2c(cc1-3)OCO2 | 109 | 103 | 12.9 | 
4 | CCOC(=O)C1CCN(CCCOc2c(OC)ccc3cc4[n+](cc23)CCc2cc3c(cc2-4)OCO3)CC1 | 99.5 | 98.5 |  | 
5 | COc1ccc2cc3[n+](cc2c1OC)CCc1cc2c(cc1-3)OCO2 [BERBERINE CHLORIDE] | 97.2 | 99.4 | 21.1 | 
6 | COc1ccc2c(c1)c(CC(=O)O)c(C)n2C(=O)c1ccc(Cl)cc1 [INDOMETHACIN] | 99.6 | 99.8 | 20.8 | 
7 | COc1ccc2cc3[n+](cc2c1OC(=O)N(C)C1CCCCC1)CCc1cc2c(cc1-3)OCO2 | 83.2 | 99.3 | 70.3 | inhibition [4]: Dose-dependent effect; Activity (Danio rerio [5]): Active; inhibition at 5 µM (RAW264.7 [6]): 70%; inhibition (RAW264.7 [7]): Dose-dependent effect; Activity (Danio rerio [8]): inactive; Activity (Danio rerio [9]): Active; inhibition (RAW264.7 [10]): Active; inhibition (RAW264.7 [11]): Dose-dependent effect
8 | COc1ccc2cc3[n+](cc2c1OC(=O)N1CCN(C2CCN(C)CC2)CC1)CCc1cc2c(cc1-3)OCO2 | 102 | 107 |  | 
9 | C=CCN(CC=C)C(=O)Oc1c(OC)ccc2cc3[n+](cc12)CCc1cc2c(cc1-3)OCO2 | 92.2 | 100 |  | 
10 | COc1ccc2cc3[n+](cc2c1OC(=O)N1CCC(Cc2ccccc2)CC1)CCc1cc2c(cc1-3)OCO2 | 87.9 | 97.6 |  | 
11 | COc1ccc2cc3[n+](cc2c1OC(=O)N1CCN(c2ncccn2)CC1)CCc1cc2c(cc1-3)OCO2 | 97.6 | 102 |  | 
12 | CCOC(=O)N1CCN(CCCOc2c(OC)ccc3cc4[n+](cc23)CCc2cc3c(cc2-4)OCO3)CC1 | 99.1 | 103 |  | 
13 | CCCN(CCC)C(=O)Oc1c(OC)ccc2cc3[n+](cc12)CCc1cc2c(cc1-3)OCO2 | 93.9 | 101 |  | 
14 | COc1ccc2cc3[n+](cc2c1OCCCN1CCN(c2ccncc2)CC1)CCc1cc2c(cc1-3)OCO2 | 100 | 103 | 30.2 | inhibition [4]: Dose-dependent effect; Activity (Danio rerio [5]): Active; inhibition at 5 µM (RAW264.7 [6]): 90%; inhibition (RAW264.7 [7]): Dose-dependent effect; Activity (Danio rerio [8]): inactive; Activity (Danio rerio [9]): Active; inhibition (RAW264.7 [10]): Active; inhibition (RAW264.7 [11]): Dose-dependent effect
15 | COc1ccc2cc3[n+](cc2c1OC(=O)N1CCC(N2CCCCC2)CC1)CCc1cc2c(cc1-3)OCO2 | 100 | 98.1 |  | 
16 | COc1ccc2cc3[n+](cc2c1OC(=O)N1CCSCC1)CCc1cc2c(cc1-3)OCO2 | 109 | 96 |  | 
17 | COc1ccc2cc3[n+](cc2c1OC(=O)N1CCOCC1)CCc1cc2c(cc1-3)OCO2 | 96 | 105 |  | 
